According to patent US4639433A, “Glycopeptide derivatives” (Eli Lilly and Company, priority 1985, dated 1987):
≈ marks a conversion by molar mass, not a printed value.

How the values were obtained:
[1] = test system: Streptococcus sp. group D 2041; details: agar dilution
[2] = test system: Klebsiella pneumoniae X26; details: agar dilution
[3] = test system: Streptococcus pneumoniae Park 1; details: agar dilution
[4] = test system: Staphylococcus aureus NRRL B313; details: agar dilution
Escherichia coli EC14 = details: agar dilution
[5] = test system: Haemophilus influenzae C.L.; details: agar dilution
Staphylococcus aureus = assay: Experimental bacterial infection in mice, ED50; type: in vivo; details: two doses, administered subcutaneously
[6] = test system: Klebsiella pneumoniae KAE; details: agar dilution
Escherichia coli TEM = details: agar dilution
[7] = test system: Klebsiella pneumoniae X68; details: agar dilution
[8] = test system: Staphylococcus epidermidis EPI1; details: agar dilution
[9] = test system: Staphylococcus aureus V41; details: agar dilution
Escherichia coli N10 = details: agar dilution
[10] = test system: Haemophilus influenzae 76; details: agar dilution
Streptococcus pyogenes = assay: Experimental bacterial infection in mice, ED50; type: in vivo; details: two doses, administered subcutaneously
[11] = test system: Staphylococcus epidermidis 222; details: agar dilution
[12] = test system: Staphylococcus aureus X400; details: agar dilution
Streptococcus pneumoniae = assay: Experimental bacterial infection in mice, ED50; type: in vivo; details: two doses, administered subcutaneously
[13] = test system: Streptococcus pyogenes C203; details: agar dilution
[14] = test system: Staphylococcus aureus S13E; details: agar dilution
[15] = test system: Streptococcus faecium ATCC 9790; details: agar dilution

| Structure (SMILES) | MIC [1] | MIC [2] | MIC [3] | MIC [4] | MIC (Escherichia coli EC14) | MIC [5] | ED50 (Staphylococcus aureus) | MIC [6] | MIC (Escherichia coli TEM) | MIC [7] | MIC [8] | MIC [9] | MIC (Escherichia coli N10) | MIC [10] | ED50 (Streptococcus pyogenes) | MIC [11] | MIC [12] | ED50 (Streptococcus pneumoniae) | MIC [13] | MIC [14] | further results |
| --- | --- | --- | --- | --- | --- | --- | --- | --- | --- | --- | --- | --- | --- | --- | --- | --- | --- | --- | --- | --- | --- |
| CCCCCCCC(=O)NC1(C)CC(OC2C(Oc3c4cc5cc3Oc3ccc(cc3Cl)C(O)C3NC(=O)C(NC(=O)C5NC(=O)C(CC(N)=O)NC(=O)C(NC(=O)C(CC(C)C)NC)C(O)c5ccc(c(Cl)c5)O4)c4ccc(O)c(c4)-c4c(O)cc(O)cc4C(C(=O)O)NC3=O)OC(CO)C(O)C2O)OC(C)C1O (stereo not drawn) [Compound 3, N^van --(1-oxo-n-octyl)vancomycin] | 4 µg/mL (≈ 2.54 µM) | -- (not active at 128 mcg/ml) | 0.5 µg/mL (≈ 0.317 µM) | 1 µg/mL (≈ 0.635 µM) | -- (not active at 128 mcg/ml) | -- (not active at 128 mcg/ml) | 6.9 mg/kg/2 | -- (not active at 128 mcg/ml) | -- (not active at 128 mcg/ml) | -- (not active at 128 mcg/ml) | 8 µg/mL (≈ 5.08 µM) | 2 µg/mL (≈ 1.27 µM) | -- (not active at 128 mcg/ml) | -- (not active at 128 mcg/ml) | 4.4 mg/kg/2 | 2 µg/mL (≈ 1.27 µM) | 2 µg/mL (≈ 1.27 µM) | 4.8 mg/kg/2 | 0.5 µg/mL (≈ 0.317 µM) | 2 µg/mL (≈ 1.27 µM) | MIC [15]: 2 µg/mL (≈ 1.27 µM) |
| CCCCCCCCCC(=O)NC1(C)CC(OC2C(Oc3c4cc5cc3Oc3ccc(cc3Cl)C(O)C3NC(=O)C(NC(=O)C5NC(=O)C(CC(N)=O)NC(=O)C(NC(=O)C(CC(C)C)NC)C(O)c5ccc(c(Cl)c5)O4)c4ccc(O)c(c4)-c4c(O)cc(O)cc4C(C(=O)O)NC3=O)OC(CO)C(O)C2O)OC(C)C1O (stereo not drawn) [Compound 6, N^van-(1-oxo-n-Decyl)vancomycin] | 1 µg/mL (≈ 0.624 µM) | -- (not active at 128 mcg/ml) | 1 µg/mL (≈ 0.624 µM) | 0.5 µg/mL (≈ 0.312 µM) | -- (not active at 128 mcg/ml) | -- (not active at 128 mcg/ml) | 5 mg/kg/2 | -- (not active at 128 mcg/ml) | -- (not active at 128 mcg/ml) | -- (not active at 128 mcg/ml) | 2 µg/mL (≈ 1.25 µM) | 0.5 µg/mL (≈ 0.312 µM) | -- (not active at 128 mcg/ml) | -- (not active at 128 mcg/ml) | 2.9 mg/kg/2 | 1 µg/mL (≈ 0.624 µM) | 0.5 µg/mL (≈ 0.312 µM) | 1.4 mg/kg/2 | 0.5 µg/mL (≈ 0.312 µM) | 0.5 µg/mL (≈ 0.312 µM) | MIC [15]: 0.5 µg/mL (≈ 0.312 µM) |
| C=CCCCCCCCCC(=O)NC1(C)CC(OC2C(Oc3c4cc5cc3Oc3ccc(cc3Cl)C(O)C3NC(=O)C(NC(=O)C5NC(=O)C(CC(N)=O)NC(=O)C(NC(=O)C(CC(C)C)NC)C(O)c5ccc(c(Cl)c5)O4)c4ccc(O)c(c4)-c4c(O)cc(O)cc4C(C(=O)O)NC3=O)OC(CO)C(O)C2O)OC(C)C1O (stereo not drawn) [Compound 9, N^van --(1-oxo-10-n-decenyl)vancomycin] | 1 µg/mL (≈ 0.619 µM) | -- (not active at 128 mcg/ml) | 0.25 µg/mL (≈ 0.155 µM) | 0.5 µg/mL (≈ 0.309 µM) | -- (not active at 128 mcg/ml) | -- (not active at 128 mcg/ml) | 3.7 mg/kg/2 | -- (not active at 128 mcg/ml) | -- (not active at 128 mcg/ml) | -- (not active at 128 mcg/ml) | 2 µg/mL (≈ 1.24 µM) | 0.5 µg/mL (≈ 0.309 µM) | -- (not active at 128 mcg/ml) | 128 µg/mL (≈ 79.2 µM) | 1.9 mg/kg/2 | 0.5 µg/mL (≈ 0.309 µM) | 0.5 µg/mL (≈ 0.309 µM) | 1.8 mg/kg/2 | 0.25 µg/mL (≈ 0.155 µM) | 0.5 µg/mL (≈ 0.309 µM) | MIC [15]: 0.25 µg/mL (≈ 0.155 µM) |
| CCCCCCCCCCCC(=O)NC1(C)CC(OC2C(Oc3c4cc5cc3Oc3ccc(cc3Cl)C(O)C3NC(=O)C(NC(=O)C5NC(=O)C(CC(N)=O)NC(=O)C(NC(=O)C(CC(C)C)NC)C(O)c5ccc(c(Cl)c5)O4)c4ccc(O)c(c4)-c4c(O)cc(O)cc4C(C(=O)O)NC3=O)OC(CO)C(O)C2O)OC(C)C1O (stereo not drawn) [Compound 12, N^van --(1-oxo-n-dodecyl)vancomycin] | 0.5 µg/mL (≈ 0.306 µM) | -- (not active at 128 mcg/ml) | 0.5 µg/mL (≈ 0.306 µM) | 0.25 µg/mL (≈ 0.153 µM) | -- (not active at 128 mcg/ml) | -- (not active at 128 mcg/ml) | 6.8 mg/kg/2 | -- (not active at 128 mcg/ml) | -- (not active at 128 mcg/ml) | -- (not active at 128 mcg/ml) | 2 µg/mL (≈ 1.23 µM) | 0.25 µg/mL (≈ 0.153 µM) | -- (not active at 128 mcg/ml) | -- (not active at 128 mcg/ml) | 1.6 mg/kg/2 | 0.5 µg/mL (≈ 0.306 µM) | 0.5 µg/mL (≈ 0.306 µM) | 0.9 mg/kg/2 | 0.5 µg/mL (≈ 0.306 µM) | 0.5 µg/mL (≈ 0.306 µM) | MIC [15]: 0.5 µg/mL (≈ 0.306 µM) |
| CCCCCCCCCCCCCC(=O)NC1(C)CC(OC2C(Oc3c4cc5cc3Oc3ccc(cc3Cl)C(O)C3NC(=O)C(NC(=O)C5NC(=O)C(CC(N)=O)NC(=O)C(NC(=O)C(CC(C)C)NC)C(O)c5ccc(c(Cl)c5)O4)c4ccc(O)c(c4)-c4c(O)cc(O)cc4C(C(=O)O)NC3=O)OC(CO)C(O)C2O)OC(C)C1O (stereo not drawn) [Compound 14, N^van --(1-oxo-n-tetradecyl)vancomycin] | 0.5 µg/mL (≈ 0.301 µM) | -- (not active at 128 mcg/ml) | 2 µg/mL (≈ 1.21 µM) | 2 µg/mL (≈ 1.21 µM) | -- (not active at 128 mcg/ml) | 128 µg/mL (≈ 77.1 µM) | 6.6 mg/kg/2 | -- (not active at 128 mcg/ml) | -- (not active at 128 mcg/ml) | -- (not active at 128 mcg/ml) | 8 µg/mL (≈ 4.82 µM) | 2 µg/mL (≈ 1.21 µM) | -- (not active at 128 mcg/ml) | 128 µg/mL (≈ 77.1 µM) | 1.4 mg/kg/2 | 2 µg/mL (≈ 1.21 µM) | 2 µg/mL (≈ 1.21 µM) | 1.3 mg/kg/2 | 2 µg/mL (≈ 1.21 µM) | 0.5 µg/mL (≈ 0.301 µM) | MIC [15]: 0.5 µg/mL (≈ 0.301 µM) |
